The target in one test is T1, human GST-CLK1 (129-end) (Homo sapiens, UniProt P49759).
T1 construct: purified human GST-CLK1 (129-end, Signalchem) enzyme; GST; purchased Signalchem
The experiment in a line: GST-CLK1 enzyme inhibition, ADP-Glo kinase assay. Type of test: biochemical. Particulars: ATP 10 uM. An outline of the steps:
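ADP formation was read by ADP-Glo luminescence after 1 h at 25° C with 3 ng human GST-CLK1 (129-end), substrate and 10 uM ATP in Tris pH 7.4 buffer containing MgCl2, BSA and DTT. Inhibition relative to untreated solvent control gave IC50 (nM), run in triplicate.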

The test system of another test is IL-6. The experiment in a line: IL-6 secretion inhibition in LPS-treated THP-1 cells (ELISA). The following applies: Homo sapiens, compound 0.5 μM, LPS 500 ng/ml, 24 hours, read-out: THP1/IL6 (% inhib). Type of test: cell-based. As to the method: In order to evaluate the cytokine secretion inhibitory efficacy of mononuclear cells, THP-1 cells (ATCC, #TIB-202) as a human-derived monocyte cell line were cultured in RPMI-1640 (Hyclone, SH30027.01) media in which 10% fetal bovine serum (Hyclone, SH30084.03), 1% penicillin streptomycin (Welgene, LS202-02) and 50 μM 2-Mercaptoethanol (Gibco, #21985023) were contained. In the test, 1.5-2×10^5 cells/250 μl per each well were dispensed in a 48-well plate (SPL, #30048) and incubated in an incubator at 37° C. and 5% CO2 for 16 hours, and then the compounds were diluted in DMSO so that the final concentration was 0.5 μM. It was treated with Lipopolysaccharides (LPS) (sigma, #L6529) […]. After treatment with the compound, the LPS was treated so that the final concentration was 500 ng/ml, and then the cell culture fluid was collected after culturing for 24 hours, and the degrees of the cytokines IL-6 (R&D system, #D6050) and TNF-α (R&D system, #DTA00D) contained in the culture fluid were collected using each ELISA kit. After performing the experiment according to the manufacturer's instructions, the absorbance at 450 nm was measured and analyzed using a microplate reader.
In general terms: ELISA stands for enzyme-linked immunosorbent assay.

The target in another test is LRRK2 (Homo sapiens, UniProt Q5S007). Briefly: LRRK2 enzyme inhibition, ADP-Glo kinase assay. Details: purchased Invitrogen PR8604B. The format is biochemical. An outline of the steps: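 ADP-Glo luminescence read after 2 h at 25° C, 10 μM ATP, 25 ng purified human LRRK2 and […] substrate in Tris-HCl pH7.4 buffer with MgCl2, BSA, DTT. Twelve final concentrations, 50 μM down to 0.000001024 μM; IC50 (nM) from inhibition relative to untreated solvent control.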
In general terms: ADP-Glo first removes unused ATP, then detects ADP through luciferase.

The next test addresses LRRK2 (G2019S) (Homo sapiens, UniProt Q5S007, G2019S). Briefly: LRRK2 G2019S enzyme inhibition, ADP-Glo kinase assay. The format is biochemical. Details: purchased SignalChem L10-12GG. An outline of the steps: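 Activity read as ADP-Glo luminescence, normalized to untreated solvent control, with IC50 (nM) fitted over 12 final compound levels (top 50 μM). Reaction: 2 h, 25° C, human LRRK2 G2019S 16 ng, ATP 25 μM, substrate 0.2 μg, in Tris-HCl pH 7.4 with MgCl2, BSA and DTT.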

Drawing on patent publication US12240844B2 (Voronoi, Inc., priority 2019, dated 2025), this text covers IC50 and inhibition for 17 compounds.

In general, IC50 refers to the concentration that gives 50% inhibition.

Sequence of LRRK2 (Q5S007 970-2527 limits assumed): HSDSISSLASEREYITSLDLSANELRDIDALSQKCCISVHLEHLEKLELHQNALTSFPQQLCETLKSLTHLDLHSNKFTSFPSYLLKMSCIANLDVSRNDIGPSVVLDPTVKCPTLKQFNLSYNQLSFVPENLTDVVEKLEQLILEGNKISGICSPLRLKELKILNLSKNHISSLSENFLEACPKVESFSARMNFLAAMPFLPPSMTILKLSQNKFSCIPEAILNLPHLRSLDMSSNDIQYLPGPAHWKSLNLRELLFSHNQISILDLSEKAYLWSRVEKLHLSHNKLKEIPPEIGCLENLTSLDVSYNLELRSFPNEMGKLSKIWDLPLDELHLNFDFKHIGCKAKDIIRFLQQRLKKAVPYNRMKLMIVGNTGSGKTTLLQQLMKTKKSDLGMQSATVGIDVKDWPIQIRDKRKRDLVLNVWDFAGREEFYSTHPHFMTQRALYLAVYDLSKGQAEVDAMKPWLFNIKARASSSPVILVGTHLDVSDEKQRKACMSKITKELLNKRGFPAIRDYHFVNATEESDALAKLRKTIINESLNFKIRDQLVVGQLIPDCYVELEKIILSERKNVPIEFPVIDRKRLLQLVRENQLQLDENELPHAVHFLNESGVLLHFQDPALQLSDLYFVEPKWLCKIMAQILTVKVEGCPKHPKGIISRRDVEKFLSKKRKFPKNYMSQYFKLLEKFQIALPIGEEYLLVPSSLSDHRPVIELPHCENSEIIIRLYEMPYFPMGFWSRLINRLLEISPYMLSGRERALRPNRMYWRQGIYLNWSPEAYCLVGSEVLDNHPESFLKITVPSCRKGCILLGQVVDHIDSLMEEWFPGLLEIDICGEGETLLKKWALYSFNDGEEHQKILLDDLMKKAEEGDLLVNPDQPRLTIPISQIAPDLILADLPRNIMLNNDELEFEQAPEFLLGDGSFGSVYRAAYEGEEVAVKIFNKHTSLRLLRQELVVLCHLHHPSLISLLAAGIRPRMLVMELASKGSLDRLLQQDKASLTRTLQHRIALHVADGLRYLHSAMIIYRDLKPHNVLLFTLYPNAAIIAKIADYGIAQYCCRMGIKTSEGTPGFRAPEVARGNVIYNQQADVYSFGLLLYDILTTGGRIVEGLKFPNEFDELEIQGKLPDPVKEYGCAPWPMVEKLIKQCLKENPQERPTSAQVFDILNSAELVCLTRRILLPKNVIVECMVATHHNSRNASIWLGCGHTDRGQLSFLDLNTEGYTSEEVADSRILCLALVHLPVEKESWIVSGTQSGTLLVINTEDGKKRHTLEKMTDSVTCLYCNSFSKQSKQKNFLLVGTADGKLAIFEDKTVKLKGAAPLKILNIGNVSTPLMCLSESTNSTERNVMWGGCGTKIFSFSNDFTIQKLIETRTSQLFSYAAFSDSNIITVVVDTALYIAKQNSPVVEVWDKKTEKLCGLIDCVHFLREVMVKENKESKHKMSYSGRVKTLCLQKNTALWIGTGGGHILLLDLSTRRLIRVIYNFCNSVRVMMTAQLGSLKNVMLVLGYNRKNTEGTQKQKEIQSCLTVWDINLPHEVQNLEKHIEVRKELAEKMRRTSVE
T1 sequence (P49759 129-484 limits assumed): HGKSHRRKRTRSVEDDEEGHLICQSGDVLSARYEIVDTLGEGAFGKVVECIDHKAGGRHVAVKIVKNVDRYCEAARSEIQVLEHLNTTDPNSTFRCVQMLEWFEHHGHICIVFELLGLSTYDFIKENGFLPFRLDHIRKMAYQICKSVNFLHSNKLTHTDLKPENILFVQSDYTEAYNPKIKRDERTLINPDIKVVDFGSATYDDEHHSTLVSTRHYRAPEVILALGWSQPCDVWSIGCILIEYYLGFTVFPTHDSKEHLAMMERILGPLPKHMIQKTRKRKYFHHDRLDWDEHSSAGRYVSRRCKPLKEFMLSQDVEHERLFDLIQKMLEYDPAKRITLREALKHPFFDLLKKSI
Sequence of LRRK2 (G2019S) (Q5S007 970-2527 G2019S limits assumed): as the sequence (Q5S007 970-2527 limits assumed) above, with G1050S counted along it

As for `CCNc1cc(Nc2ccc(P3(=O)CCN(C(C)=O)CC3)cc2OC)nc2[nH]cc(C(F)(F)F)c12` [Example 42, 1-(4-(4-((4-(ethylamino)-3-(trifluoromethyl)-1H-pyrrolo[2,3-b]pyridin-6-yl)amino)-3-methoxyphenyl)-4-oxido-1,4-azaphosphinan-1-yl)ethan-1-one], the IC50 at human GST-CLK1 (129-end) was 101 to 300 nM; against LRRK2 it was below 100 nM; on LRRK2 (G2019S), 101 to 300 nM. Moreover, in the test on IL-6, the inhibition at 0.5 µM turned out to be 48.3%.

`CCNc1cc(Nc2ccc(C(=O)N3C[C@@H]4C[C@H]3CO4)c3c2OCCO3)nc2[nH]cc(C(F)(F)F)c12` [Example 44, ((1S,4S)-2-oxa-5-azabicyclo[2.2.1]heptan-5-yl)(8-((4-(ethylamino)-3-(trifluoromethyl)-1H-pyrrolo[2,3-b]pyridin-6-yl)amino)-2,3-dihydrobenzo[b] [1,4]dioxin-5-yl)methanone]: the IC50 on human GST-CLK1 (129-end) and at LRRK2 was below 100 nM each time. Further, the inhibition at 0.5 µM in the test with IL-6 amounted to 47.9%.

With `CCNc1cc(Nc2ccc(C(=O)N3CCC(N4CCOCC4)CC3)c3c2OCC3)nc2[nH]cc(C(F)(F)F)c12` [Example 90, (7-((4-(ethylamino)-3-(trifluoromethyl)-1H-pyrrolo[2,3-b]pyridin-6-yl)amino)-2,3-dihydrobenzofuran-4-yl)(4-morpholinopiperidin-1-yl)methanone], the half-inhibitory concentration (IC50) against human GST-CLK1 (129-end), against LRRK2 and against LRRK2 (G2019S) was below 100 nM throughout. Further, the inhibition at 0.5 µM in the test on IL-6 came to 12.2%.

Take `O=C(c1ccc(Nc2cc(C3CC3)c3c(C(F)(F)F)c[nH]c3n2)c2c1CCO2)N1CCOCC1` [Example 91, (7-((4-cyclopropyl-3-(trifluoromethyl)-1H-pyrrolo[2,3-b]pyridin-6-yl)amino)-2,3-dihydrobenzofuran-4-yl)(morpholino) methanone]: in the test with IL-6, the inhibition at 0.5 µM was 52.5%. For the same compound, the IC50 against LRRK2 and on LRRK2 (G2019S) was 301 to 1000 nM throughout.

In the case of `CCNc1cc(Nc2ccc(P3(=O)CCN(C4CCOCC4)CC3)cc2OC)nc2[nH]cc(C(F)(F)F)c12` [Example 94, 4-(4-((4-(ethylamino)-3-(trifluoromethyl)-1H-pyrrolo[2,3-b]pyridin-6-yl)amino)-3-methoxyphenyl)-1-(tetrahydro-2H-pyran-4-yl)-1,4-azaphosphinane 4-oxide], the half-inhibitory concentration (IC50) against human GST-CLK1 (129-end), on LRRK2 and on LRRK2 (G2019S) was 101 to 300 nM throughout. For the same compound, in the test with IL-6, the inhibition at 0.5 µM came out at 21%.

Take `COCCNc1cc(Nc2ccc(S(=O)(=O)N3CCC(N4CCOCC4)CC3)c3c2OCCO3)nc2[nH]cc(C(F)(F)F)c12` [Example 97, N^4-(2-methoxyethyl)-N^6-(8-((4-morpholonopiperidin-1-yl)sulfonyl)-2,3-dihydrobenzo[b] [1,4]dioxin-5-yl)-3-(trifluoromethyl)-1H-pyrrolo[2,3-b]pyridine-4,6-diamine]: the IC50 against human GST-CLK1 (129-end), against LRRK2 and against LRRK2 (G2019S) was below 100 nM throughout. The inhibition at 0.5 µM in the test on IL-6 was 17%.

`CCNc1cc(Nc2ccc(C(=O)N3CCN(C4COC4)CC3)c3c2OCCO3)nc2[nH]cc(C(F)(F)F)c12` [Example 173, (8-((4-(ethylamino)-3-(trifluoromethyl)-1H-pyrrolo[2,3-b]pyridin-6-yl)amino)-2,3-dihydrobenzo[b] [1,4]dioxin-5-yl)(4-(oxetan-3-yl)piperazin-1-yl)methanone]: the concentration for half-maximal inhibition (IC50) on human GST-CLK1 (129-end) and at LRRK2 was below 100 nM in each case. For the same compound, in the test with IL-6, the inhibition at 0.5 µM turned out to be 9.1%.

Take `O=C(c1ccc(Nc2cc(C3CC3)c3c(C(F)(F)F)c[nH]c3n2)c2c1OCCO2)N1CCOCC1` [Example 220, (8-((4-cyclopropyl-3-(trifluoromethyl)-1H-pyrrolo[2,3-b]pyridin-6-yl)amino)-2,3-dihydrobenzo[b] [1,4]dioxin-5-yl)(morpholino) methanone]: the IC50 against human GST-CLK1 (129-end), against LRRK2 and on LRRK2 (G2019S) was 301 to 1000 nM throughout.

Turning to `O=C(c1ccc(Nc2cc(C3CC3)c3c(C(F)(F)F)c[nH]c3n2)c2c1OCCO2)N1CCC(N2CCOCC2)CC1` [Example 221, (8-((4-cyclopropyl-3-(trifluoromethyl)-1H-pyrrolo[2,3-b]pyridin-6-yl)amino)-2,3-dihydrobenzo [b] [1,4]dioxin-5-yl)(4-morpholinopiperidin-1-yl)methanone], the half-inhibitory concentration (IC50) is below 100 nM at human GST-CLK1 (129-end), 101 to 300 nM on LRRK2 and 101 to 300 nM at LRRK2 (G2019S).

In the case of `COc1cc(S(=O)(=O)N2CCOCC2)ccc1Nc1cc(C2CC2)c2c(C(F)(F)F)c[nH]c2n1` [Example 222, 4-cyclopropyl-N-(2-methoxy-4-(morpholinosulfonyl)phenyl)-3-(trifluoromethyl)-1H-pyrrolo[2,3-b]pyridin-6-amine], the IC50 at human GST-CLK1 (129-end), at LRRK2 and against LRRK2 (G2019S) was 301 to 1000 nM in each case.

Consider `N#Cc1c[nH]c2nc(Nc3ccc(C(=O)N4CCOCC4)c4c3OCCO4)cc(C3CC3)c12` [Example 225, 4-cyclopropyl-6-((8-(morpholine-4-carbonyl)-2,3-dihydrobenzo[b] [1,4]dioxin-5-yl)amino)-1H-pyrrolo[2,3-b]pyridine-3-carbonitrile], for which the IC50 against human GST-CLK1 (129-end) was 301 to 1000 nM; on LRRK2, below 100 nM; at LRRK2 (G2019S) it was below 100 nM.

As to `N#Cc1c[nH]c2nc(Nc3ccc(C(=O)N4CCC(N5CCOCC5)CC4)c4c3OCCO4)cc(C3CC3)c12` [Example 226, 4-cyclopropyl-6-((8-(4-morpholinopiperidine-1-carbonyl)-2,3-dihydrobenzo[b] [1,4]dioxin-5-yl)amino)-1H-pyrrolo[2,3-b]pyridine-3-carbonitrile], the IC50 on human GST-CLK1 (129-end), against LRRK2 and against LRRK2 (G2019S) was below 100 nM in each case.

Regarding `COc1cc(S(=O)(=O)N2CCOCC2)ccc1Nc1cc(C2CC2)c2c(C#N)c[nH]c2n1` [Example 227, 4-cyclopropyl-6-((2-methoxy-4-(morpholinosulfonyl)phenyl)amino)-1H-pyrrolo[2,3-b]pyridine-3-carbonitrile], the IC50 on human GST-CLK1 (129-end) was 301 to 1000 nM; against LRRK2, below 100 nM; against LRRK2 (G2019S), 101 to 300 nM.

For `COc1cc(S(=O)(=O)N2CCC(N3CCOCC3)CC2)ccc1Nc1cc(C2CC2)c2c(C#N)c[nH]c2n1` [Example 228, 4-cyclopropyl-6-((2-methoxy-4-((4-morpholinopiperidin-1-yl)sulfonyl)phenyl)amino)-1H-pyrrolo[2,3-b]pyridine-3-carbonitrile], the IC50 was 301 to 1000 nM against human GST-CLK1 (129-end), below 100 nM on LRRK2 and below 100 nM against LRRK2 (G2019S).

In the case of `CNc1cc(Nc2ccc(C(=O)N3CCC(N4C[C@@H]5C[C@H]4CO5)CC3)c3c2OCC3)nc2[nH]cc(C(F)(F)F)c12` [Example 241, (4-((1S,4S)-2-oxa-5-azabicyclo[2.2.1]heptan-5-yl)piperidin-1-yl)(7-((4-(methylamino)-3-(trifluoromethyl)-1H-pyrrolo[2,3-b]pyridin-6-yl)amino)-2,3-dihydrobenzofuran-4-yl)methanone], the IC50 against human GST-CLK1 (129-end), against LRRK2 and on LRRK2 (G2019S) was below 100 nM each time.

In the case of `CCNc1cc(Nc2ccc(C(=O)N3CCC(N4C[C@H]5C[C@@H]4CO5)CC3)c3c2OCC3)nc2[nH]cc(C(F)(F)F)c12` [Example 244, (4-((1R,4R)-2-oxa-5-azabicyclo[2.2.1]heptan-5-yl)piperidin-1-yl)(7-((4-(ethylamino)-3-(trifluoromethyl)-1H-pyrrolo[2,3-b]pyridin-6-yl)amino)-2,3-dihydrobenzofuran-4-yl)methanone], the half-maximal inhibitory concentration (IC50) against human GST-CLK1 (129-end) and on LRRK2 (G2019S) was below 100 nM in each case. Also, the inhibition at 0.5 µM in the test on IL-6 stood at 40.1%.

Consider `CCNc1cc(Nc2ccc(C(=O)N3CCN(C4COC4)CC3)c3c2OCC3)nc2[nH]cc(C(F)(F)F)c12` [Example 248, (7-((4-(ethylamino)-3-(trifluoromethyl)-1H-pyrrolo[2,3-b]pyridin-6-yl)amino)-2,3-dihydrobenzofuran-4-yl)(4-(oxetan-3-yl)piperazin-1-yl)methanone], for which the IC50 at human GST-CLK1 (129-end) and at LRRK2 (G2019S) was below 100 nM each time. Further, in the test with IL-6, the inhibition at 0.5 µM was determined as 48.4%.
